Results reported in PubChem BioAssay AID1963837 (Molecular Pharmacology Branch, DTP, NCI, 2024).

Tested on: 843126-344-R-J1-PDC complex spheroid viability
Experiment: Anticancer human tumor 843126-344-R-J1-PDC patient-derived melanoma cell line growth inhibition [POLQ]
Details: second compound 1 µM; first compound 0.1 µM; hits give low values
Summary of the method: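 Complex spheroid viability model combining PDC tumour cells with endothelial (HUVEC) and MSC stromal cells. Novobiocin, ART-558 or RP6685 were tested singly and in combination with standard and investigational anticancer drugs. Each was titrated in half-log steps from near clinical Cmax, or from 10 microM where Cmax was unknown.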
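Also: spheroids exposed to drugs for seven days before readout.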

Row | Structure (SMILES) | viability, T/C
1 | CCCS(=O)(=O)Nc1ccc(F)c(C(=O)c2c[nH]c3ncc(-c4ccc(Cl)cc4)cc23)c1F + COC1C(OC(N)=O)C(O)C(Oc2ccc3c(O)c(NC(=O)c4ccc(O)c(CC=C(C)C)c4)c(=O)oc3c2C)OC1(C)C | 98.2%
2 | COc1cc2cc(C(=O)CCC(=O)O)sc2cc1OC + Cc1cccc(N(C)C(=O)C2C(O)CCN2c2nc(C)cc(C(F)(F)F)c2C#N)c1 | 84.2%
3 | C=CCn1c(=O)c2cnc(Nc3ccc(N4CCN(C)CC4)cc3)nc2n1-c1cccc(C(C)(C)O)n1 + Nc1ccc(C#CCN(C(=O)Cc2ncc(C(F)(F)F)cc2C(F)(F)F)c2ccc(F)cc2)nn1 | 90.4%
4 | Nc1ccn(C2OC(CO)C(O)C2(F)F)c(=O)n1 (configuration not stated) + Cc1cccc(N(C)C(=O)C2C(O)CCN2c2nc(C)cc(C(F)(F)F)c2C#N)c1 | 44.5%
5 | C#Cc1c(F)ccc2cc(O)cc(-c3ncc4c(N5CC6CCC(C5)N6)nc(OCC56CCCN5CC(F)C6)nc4c3F)c12 (configuration not stated) + Cc1cccc(N(C)C(=O)C2C(O)CCN2c2nc(C)cc(C(F)(F)F)c2C#N)c1 | 106%

Same assay, conditions: second compound 1 µM; first compound 0.316 µM; hits give low values

Row | Structure (SMILES) | viability, T/C
6 | CCc1c2c(nc3ccc(O)cc13)-c1cc3c(c(=O)n1C2)COC(=O)[C@]3(O)CC + Nc1ccc(C#CCN(C(=O)Cc2ncc(C(F)(F)F)cc2C(F)(F)F)c2ccc(F)cc2)nn1 | 66.5%
7 | CCc1c2c(nc3ccc(O)cc13)-c1cc3c(c(=O)n1C2)COC(=O)[C@]3(O)CC + Cc1cccc(N(C)C(=O)C2C(O)CCN2c2nc(C)cc(C(F)(F)F)c2C#N)c1 | 59.6%
8 | CCCS(=O)(=O)Nc1ccc(F)c(C(=O)c2c[nH]c3ncc(-c4ccc(Cl)cc4)cc23)c1F + COC1C(OC(N)=O)C(O)C(Oc2ccc3c(O)c(NC(=O)c4ccc(O)c(CC=C(C)C)c4)c(=O)oc3c2C)OC1(C)C | 80.4%
9 | COc1cc2cc(C(=O)CCC(=O)O)sc2cc1OC + Cc1cccc(N(C)C(=O)C2C(O)CCN2c2nc(C)cc(C(F)(F)F)c2C#N)c1 | 88.1%
10 | C=CCn1c(=O)c2cnc(Nc3ccc(N4CCN(C)CC4)cc3)nc2n1-c1cccc(C(C)(C)O)n1 + Nc1ccc(C#CCN(C(=O)Cc2ncc(C(F)(F)F)cc2C(F)(F)F)c2ccc(F)cc2)nn1 | 85.4%
11 | Nc1ccn(C2OC(CO)C(O)C2(F)F)c(=O)n1 (configuration not stated) + Cc1cccc(N(C)C(=O)C2C(O)CCN2c2nc(C)cc(C(F)(F)F)c2C#N)c1 | 37.6%
12 | C#Cc1c(F)ccc2cc(O)cc(-c3ncc4c(N5CC6CCC(C5)N6)nc(OCC56CCCN5CC(F)C6)nc4c3F)c12 (configuration not stated) + Cc1cccc(N(C)C(=O)C2C(O)CCN2c2nc(C)cc(C(F)(F)F)c2C#N)c1 | 82.8%

Same assay, conditions: second compound 1 µM; first compound 1 µM; hits give low values

Row | Structure (SMILES) | viability, T/C
13 | CCc1c2c(nc3ccc(O)cc13)-c1cc3c(c(=O)n1C2)COC(=O)[C@]3(O)CC + Nc1ccc(C#CCN(C(=O)Cc2ncc(C(F)(F)F)cc2C(F)(F)F)c2ccc(F)cc2)nn1 | 46.3%
14 | CCc1c2c(nc3ccc(O)cc13)-c1cc3c(c(=O)n1C2)COC(=O)[C@]3(O)CC + Cc1cccc(N(C)C(=O)C2C(O)CCN2c2nc(C)cc(C(F)(F)F)c2C#N)c1 | 44.6%
15 | CCCS(=O)(=O)Nc1ccc(F)c(C(=O)c2c[nH]c3ncc(-c4ccc(Cl)cc4)cc23)c1F + COC1C(OC(N)=O)C(O)C(Oc2ccc3c(O)c(NC(=O)c4ccc(O)c(CC=C(C)C)c4)c(=O)oc3c2C)OC1(C)C | 87.6%
16 | COc1cc2cc(C(=O)CCC(=O)O)sc2cc1OC + Cc1cccc(N(C)C(=O)C2C(O)CCN2c2nc(C)cc(C(F)(F)F)c2C#N)c1 | 93.5%
17 | C=CCn1c(=O)c2cnc(Nc3ccc(N4CCN(C)CC4)cc3)nc2n1-c1cccc(C(C)(C)O)n1 + Nc1ccc(C#CCN(C(=O)Cc2ncc(C(F)(F)F)cc2C(F)(F)F)c2ccc(F)cc2)nn1 | 86.4%
18 | Nc1ccn(C2OC(CO)C(O)C2(F)F)c(=O)n1 (configuration not stated) + Cc1cccc(N(C)C(=O)C2C(O)CCN2c2nc(C)cc(C(F)(F)F)c2C#N)c1 | 47.7%
19 | C#Cc1c(F)ccc2cc(O)cc(-c3ncc4c(N5CC6CCC(C5)N6)nc(OCC56CCCN5CC(F)C6)nc4c3F)c12 (configuration not stated) + Cc1cccc(N(C)C(=O)C2C(O)CCN2c2nc(C)cc(C(F)(F)F)c2C#N)c1 | 89.9%

Same assay, conditions: second compound 1 µM; first compound 3.16 µM; hits give low values

Row | Structure (SMILES) | viability, T/C
20 | CCCS(=O)(=O)Nc1ccc(F)c(C(=O)c2c[nH]c3ncc(-c4ccc(Cl)cc4)cc23)c1F + COC1C(OC(N)=O)C(O)C(Oc2ccc3c(O)c(NC(=O)c4ccc(O)c(CC=C(C)C)c4)c(=O)oc3c2C)OC1(C)C | 65.5%
21 | COc1cc2cc(C(=O)CCC(=O)O)sc2cc1OC + Cc1cccc(N(C)C(=O)C2C(O)CCN2c2nc(C)cc(C(F)(F)F)c2C#N)c1 | 91.8%
22 | Nc1ccn(C2OC(CO)C(O)C2(F)F)c(=O)n1 (configuration not stated) + Cc1cccc(N(C)C(=O)C2C(O)CCN2c2nc(C)cc(C(F)(F)F)c2C#N)c1 | 35.9%
23 | C#Cc1c(F)ccc2cc(O)cc(-c3ncc4c(N5CC6CCC(C5)N6)nc(OCC56CCCN5CC(F)C6)nc4c3F)c12 (configuration not stated) + Cc1cccc(N(C)C(=O)C2C(O)CCN2c2nc(C)cc(C(F)(F)F)c2C#N)c1 | 91.2%

Same assay, conditions: second compound 1 µM; first compound 10 µM; hits give low values

Row | Structure (SMILES) | viability, T/C
24 | CCCS(=O)(=O)Nc1ccc(F)c(C(=O)c2c[nH]c3ncc(-c4ccc(Cl)cc4)cc23)c1F + COC1C(OC(N)=O)C(O)C(Oc2ccc3c(O)c(NC(=O)c4ccc(O)c(CC=C(C)C)c4)c(=O)oc3c2C)OC1(C)C | 65%
25 | COc1cc2cc(C(=O)CCC(=O)O)sc2cc1OC + Cc1cccc(N(C)C(=O)C2C(O)CCN2c2nc(C)cc(C(F)(F)F)c2C#N)c1 | 86.4%
26 | Nc1ccn(C2OC(CO)C(O)C2(F)F)c(=O)n1 (configuration not stated) + Cc1cccc(N(C)C(=O)C2C(O)CCN2c2nc(C)cc(C(F)(F)F)c2C#N)c1 | 41.5%
27 | C#Cc1c(F)ccc2cc(O)cc(-c3ncc4c(N5CC6CCC(C5)N6)nc(OCC56CCCN5CC(F)C6)nc4c3F)c12 (configuration not stated) + Cc1cccc(N(C)C(=O)C2C(O)CCN2c2nc(C)cc(C(F)(F)F)c2C#N)c1 | 79%

Same assay, conditions: second compound 3.16 µM; first compound 0.00316 µM; hits give low values

Row | Structure (SMILES) | viability, T/C
28 | CCc1c2c(nc3ccc(O)cc13)-c1cc3c(c(=O)n1C2)COC(=O)[C@]3(O)CC + Nc1ccc(C#CCN(C(=O)Cc2ncc(C(F)(F)F)cc2C(F)(F)F)c2ccc(F)cc2)nn1 | 70.3%
29 | CCc1c2c(nc3ccc(O)cc13)-c1cc3c(c(=O)n1C2)COC(=O)[C@]3(O)CC + Cc1cccc(N(C)C(=O)C2C(O)CCN2c2nc(C)cc(C(F)(F)F)c2C#N)c1 | 67.5%
30 | C=CCn1c(=O)c2cnc(Nc3ccc(N4CCN(C)CC4)cc3)nc2n1-c1cccc(C(C)(C)O)n1 + Nc1ccc(C#CCN(C(=O)Cc2ncc(C(F)(F)F)cc2C(F)(F)F)c2ccc(F)cc2)nn1 | 91.2%

Same assay, conditions: second compound 3.16 µM; first compound 0.01 µM; hits give low values

Row | Structure (SMILES) | viability, T/C
31 | CCc1c2c(nc3ccc(O)cc13)-c1cc3c(c(=O)n1C2)COC(=O)[C@]3(O)CC + Nc1ccc(C#CCN(C(=O)Cc2ncc(C(F)(F)F)cc2C(F)(F)F)c2ccc(F)cc2)nn1 | 64.5%
32 | CCc1c2c(nc3ccc(O)cc13)-c1cc3c(c(=O)n1C2)COC(=O)[C@]3(O)CC + Cc1cccc(N(C)C(=O)C2C(O)CCN2c2nc(C)cc(C(F)(F)F)c2C#N)c1 | 60.9%
33 | C=CCn1c(=O)c2cnc(Nc3ccc(N4CCN(C)CC4)cc3)nc2n1-c1cccc(C(C)(C)O)n1 + Nc1ccc(C#CCN(C(=O)Cc2ncc(C(F)(F)F)cc2C(F)(F)F)c2ccc(F)cc2)nn1 | 84.2%

Same assay, conditions: second compound 3.16 µM; first compound 0.0316 µM; hits give low values

Row | Structure (SMILES) | viability, T/C
34 | CCc1c2c(nc3ccc(O)cc13)-c1cc3c(c(=O)n1C2)COC(=O)[C@]3(O)CC + Nc1ccc(C#CCN(C(=O)Cc2ncc(C(F)(F)F)cc2C(F)(F)F)c2ccc(F)cc2)nn1 | 52.7%
35 | CCc1c2c(nc3ccc(O)cc13)-c1cc3c(c(=O)n1C2)COC(=O)[C@]3(O)CC + Cc1cccc(N(C)C(=O)C2C(O)CCN2c2nc(C)cc(C(F)(F)F)c2C#N)c1 | 50.3%
36 | CCCS(=O)(=O)Nc1ccc(F)c(C(=O)c2c[nH]c3ncc(-c4ccc(Cl)cc4)cc23)c1F + COC1C(OC(N)=O)C(O)C(Oc2ccc3c(O)c(NC(=O)c4ccc(O)c(CC=C(C)C)c4)c(=O)oc3c2C)OC1(C)C | 92.1%
37 | COc1cc2cc(C(=O)CCC(=O)O)sc2cc1OC + Cc1cccc(N(C)C(=O)C2C(O)CCN2c2nc(C)cc(C(F)(F)F)c2C#N)c1 | 89.9%
